{
  "source": "patent US5183821A",
  "about": "“Method for treating leukemias using N-(2-dimethylaminoethyl)-3-amino-1,8-naphthalimide for treating leukemias and solid tumors” (priority 1991, dated 1993)",
  "key": {"LX-1 lung xenograft": {"system": "LX-1 lung xenograft", "assay": "NCI screen, LX-1 lung xenograft, renal capsule (summary)", "type": "in vivo, human tumor xenograft in athymic mice", "conditions": "for Antitumor activity in words: LX-1 lung xenograft", "excerpt": "(§1) The activity of the compound has been evaluated by experiments carried out under the auspices of the Division of Cancer Treatment, National Cancer Institute, employing techniques considered to be reliable indicators of chemotherapeutic utility in the treatment of forms of cancer in human patients. The details of the methodology employed in the reported experiments may be determined with reference to established NCI screening methods.\nIn the experiments conducted by the NCI, evaluation of activity is made on the basis of appropriate parameters, such as median survival time (MST) or change in average tumor diameter (CATD)in ocular micrometer units (OMU)."}, "L-1210 Lymphoid Leukemia [1]": {"system": "L-1210 Lymphoid Leukemia", "assay": "NCI screen, L-1210 Lymphoid Leukemia, subcutaneous (summary)", "type": "in vivo, Mouse", "excerpt": "as §1, with “methods. In the experiments conducted by the NCI, evaluation of activity is made on the basis of appropriate parameters, such as median survival time (MST) or change in average tumor diameter (CATD)in ocular micrometer units (OMU).” for “methods.”"}, "L-1210 Lymphoid leukemia [2]": {"system": "L-1210 Lymphoid leukemia", "assay": "Experiment 2: L-1210 s.c., 10^5 cells, acid diluted with saline, female", "type": "in vivo, Mouse CD2 F1 (CDF1)", "excerpt": "Host: Mouse CD2 F1 (CDF1)\nTumor: L-1210 Lymphoid leukemia\nInoculum site: Subcutaneous\n(§2) Vehicle: Acid diluted with saline\n(§3) Treatment schedule (relative to tumor inoculation day): daily on days 1-9\nDay of evaluation (relative to tumor inoculation day): 30\n(§4) Parameter: Median survival time (MST) in days\n(§5) NCI minimal activity criteria: Percent T/C≥125\n(§6) Percent T/C: Ratio of test (T) evaluation to control (C) evaluation expressed as a percentage"}, "CD2 F1 mice": {"system": "CD2 F1 mice", "assay": "Single dose (X1) mouse range-finding and lethality study", "type": "in vivo", "procedure": "(§7) A preclinical toxicology study of benzisoquinolinedione (NSC-308847) was done at Springborn Institute for Bioresearch, Inc. using CD2 F1 mice, Fischer 344 rats and beagle dogs. Animals were injected intravenously on a single dose (X1) or five daily dose (X5) regimen. Bulk drug was titrated with 0.5N HCl to form a salt solution of benzisoquinolinedione at a pH of 5.0-6.5. Sterile 0.9% saline was used for diluting the dosing solutions and was used for the vehicle control animals.\n(§8) All mortality and toxic signs occurred on day 1 in both the X1 range-finding and lethality studies.\n(§9) Defined Doses for the Single Dose Mouse Lethality"}, "[3]": {"assay": "Single dose (X1) mouse range-finding and lethality study", "type": "in vivo, CD2 F1 mice", "conditions": "mouse, in vivo, iv", "procedure": "as §7, §8, §9"}, "Colon 38": {"system": "Colon 38", "assay": "Experiment 15: Colon 38 s.c., saline with Tween-80, female", "type": "in vivo, Mouse B6 D2 F1 (BDF1)", "excerpt": "Host: Mouse B6 D2 F1 (BDF1)\nInoculum Site: Subcutaneous\nVehicle: Saline with Tween-80\nTreatment schedule (relative to tumor inoculation day): Days 2 and 9\nDay of evaluation (relative to tumor inoculation day): 20\nParameter: Median tumor weight (MTW) estimated from tumor diameter\nNCI minimal activity criteria: Percent T/C≤42\nas §6"}, "B16 Melanocarcinoma": {"system": "B16 Melanocarcinoma", "assay": "Experiment 20: B16 i.p., acid diluted with saline, female", "type": "in vivo, Mouse B6 C3 F1", "excerpt": "Tumor: B16 Melanocarcinoma\nInoculum Site: Intraperitoneal\nTissue: Homogenate (or brei), tumor\nas §2, §3\nDay of evaluation (relative to tumor inoculation day): 60\nas §4, §5, §6"}, "leukemia P388": {"system": "leukemia P388", "assay": "NCI studies against leukemia P388 (Appendix 1, MDA and T/C)", "type": "in vivo, murine", "excerpt": "On the other hand, murine transplantable leukemias are a good predictor of anti-leukemia activity in human beings (Kenis \"Dose schedules and mode of administration of chemotherapeutic agents in man\". Recent Results Cancer Res. 21, 54-61 (1969). Only those tests which use the survival times as an activity parameter are valid as predictors of antileukemia activity in human beings (for instance, leukemia p388 y L-1210), whilst \"in vitro\" tests (HeLa cells and other) are inappropriate (Llombart-Rodriguez, 1983). NCI data generated in the last years confirm the value of above assertions to compounds of general formula [drawing 1] as described in U.S. Pat. No. 4,204,063.\nExperimental results from NCI studies against leukemia P388 are shown in an appendix (Appendix 1). In order to simplify the presentation of results we have extracted from these the minor active dose (MDA) against leukemia P388--for each compound. MDA is defined as the minor dose of the drug that reaches the minimal activity criteria of the NCI. For leukemia P388 this criteria on the basis of survival time is a minimal increase in survival of treated animals over a control resulting in a T/C≥120. In the following table the MDA for 14 examples are presented. In cases where none of the tested doses reached the MDA, the MDA is indicated as \"NONE\". The column \"cytotoxic activity\" has been extracted from U.S. Pat. No. 4,204,063. Data are presented in order of the highest to lowest cytotoxic activity."}, "[4]": {"conditions": "16.00 mg/kg i.p., control MTW outside normal limits"}, "[5]": {"conditions": "32.00 mg/kg i.p., control MTW outside normal limits"}, "[6]": {"conditions": "64.00 mg/kg i.p., control MTW outside normal limits"}},
  "note": "“Also recorded” adds a separate entry of the source.",
  "data": [
    {"smiles": "CN(C)CCN1C(=O)c2cccc3cc(N)cc(c23)C1=O", "note": "[Example 9, 1H-Benz[de]isoquinoline-1,3(2H)-dione, 5-amino-2-[2-(dimethylamino)ethyl]]", "values": [
      {"measurement": "Antitumor activity in words", "setting": "LX-1 lung xenograft; listed as BIDA", "value": "No activity was seen"},
      {"measurement": "Antitumor activity in words", "setting": "LX-1 lung xenograft; listed as the compound", "value": "not active"},
      {"measurement": "Table II evaluation", "setting": "LX-1 lung xenograft; change in average tumor diameter, 4 tests, full wrapped cell: Activity not confirmed", "value": "Activity not"},
      {"measurement": "Table II evaluation", "setting": "L-1210 Lymphoid Leukemia [1]; median survival time, 16 tests, full wrapped cell: Activity substantially greater than the minimal", "value": "Activity"},
      {"measurement": "Antitumor activity in words", "setting": "L-1210 Lymphoid Leukemia [1]; s.c. implanted L1210", "value": "active"},
      {"measurement": "Median survival time (MST)", "setting": "L-1210 Lymphoid leukemia [2]; 5.00 mg/kg i.p.", "value": 8.2, "unit": "days"},
      {"measurement": "Percent T/C", "setting": "L-1210 Lymphoid leukemia [2]; 5.00 mg/kg i.p.", "value": 102, "unit": "%"},
      {"measurement": "Median survival time (MST)", "setting": "L-1210 Lymphoid leukemia [2]; 7.00 mg/kg i.p.", "value": 8.3, "unit": "days"},
      {"measurement": "Percent T/C", "setting": "L-1210 Lymphoid leukemia [2]; 7.00 mg/kg i.p.", "value": 103, "unit": "%"},
      {"measurement": "Median survival time (MST)", "setting": "L-1210 Lymphoid leukemia [2]; 10.00 mg/kg i.p.", "value": 9.0, "unit": "days"},
      {"measurement": "Percent T/C", "setting": "L-1210 Lymphoid leukemia [2]; 10.00 mg/kg i.p.", "value": 112, "unit": "%"},
      {"measurement": "Median survival time (MST)", "setting": "L-1210 Lymphoid leukemia [2]; 16.00 mg/kg i.p.", "value": 12.0, "unit": "days"},
      {"measurement": "Percent T/C", "setting": "L-1210 Lymphoid leukemia [2]; 16.00 mg/kg i.p.", "value": 150, "unit": "%"},
      {"measurement": "Median survival time (MST)", "setting": "L-1210 Lymphoid leukemia [2]; 24.00 mg/kg i.p.", "value": 9.3, "unit": "days"},
      {"measurement": "Percent T/C", "setting": "L-1210 Lymphoid leukemia [2]; 24.00 mg/kg i.p.", "value": 116, "unit": "%"},
      {"measurement": "body weight, mice", "setting": "CD2 F1 mice; X1", "value": "Only slight weight loss"},
      {"measurement": "time of deaths, mice", "setting": "CD2 F1 mice; X1", "value": "within a few minutes after dosing"},
      {"measurement": "toxic signs, mice", "setting": "CD2 F1 mice; X1, listed as benzisoquinolinedione", "value": "labored breathing, struggling and exophthalmus; also recorded: loss of locomotor ability, decreased activity and rough hair coats; also recorded: All surviving animals were normal within a few hours"},
      {"measurement": "LD50", "setting": "CD2 F1 mice; combined sexes", "value": 207.3, "unit": "mg/m^2"},
      {"measurement": "Slope (lethality)", "setting": "CD2 F1 mice; combined sexes", "value": 23.1},
      {"measurement": "LD10", "setting": "CD2 F1 mice; female", "value": 62.2, "unit": "mg/kg"},
      {"measurement": "LD50", "setting": "CD2 F1 mice; female", "value": 214.2, "unit": "mg/m^2"},
      {"measurement": "Slope (lethality)", "setting": "CD2 F1 mice; female", "value": 21.2},
      {"measurement": "LD50", "setting": "CD2 F1 mice; male", "value": 201.3, "unit": "mg/m^2"},
      {"measurement": "Slope (lethality)", "setting": "CD2 F1 mice; male", "value": 26.0},
      {"measurement": "LD50", "setting": "[3]; combined sexes", "value": 69.1, "unit": "mg/kg"},
      {"measurement": "LD50", "setting": "[3]; female", "value": 71.4, "unit": "mg/kg"},
      {"measurement": "LD50", "setting": "[3]; male", "value": 67.1, "unit": "mg/kg"},
      {"measurement": "Median tumor weight (MTW)", "setting": "Colon 38; [4]", "value": 2261},
      {"measurement": "Percent T/C", "setting": "Colon 38; [4]", "value": 108, "unit": "%"},
      {"measurement": "Median tumor weight (MTW)", "setting": "Colon 38; [5]", "value": 1440},
      {"measurement": "Percent T/C", "setting": "Colon 38; [5]", "value": 69, "unit": "%"},
      {"measurement": "Median tumor weight (MTW)", "setting": "Colon 38; [6]", "value": 368},
      {"measurement": "Percent T/C", "setting": "Colon 38; [6]", "value": 17, "unit": "%"},
      {"measurement": "Median tumor weight (MTW)", "setting": "Colon 38; 128.00 mg/kg i.p.", "value": "Deaths before evaluation"},
      {"measurement": "Median survival time (MST)", "setting": "B16 Melanocarcinoma; 0.00 mg/kg [sic] i.p.", "value": 18.3, "unit": "days"},
      {"measurement": "Percent T/C", "setting": "B16 Melanocarcinoma; 0.00 mg/kg [sic] i.p.", "value": 97, "unit": "%"},
      {"measurement": "Median survival time (MST)", "setting": "B16 Melanocarcinoma; 2.00 mg/kg i.p.", "value": 18.3, "unit": "days"},
      {"measurement": "Percent T/C", "setting": "B16 Melanocarcinoma; 2.00 mg/kg i.p.", "value": 97, "unit": "%"},
      {"measurement": "Median survival time (MST)", "setting": "B16 Melanocarcinoma; 4.00 mg/kg i.p.", "value": 20.0, "unit": "days"},
      {"measurement": "Percent T/C", "setting": "B16 Melanocarcinoma; 4.00 mg/kg i.p.", "value": 106, "unit": "%"},
      {"measurement": "Median survival time (MST)", "setting": "B16 Melanocarcinoma; 8.00 mg/kg i.p.", "value": 20.9, "unit": "days"},
      {"measurement": "Percent T/C", "setting": "B16 Melanocarcinoma; 8.00 mg/kg i.p.", "value": 111, "unit": "%"},
      {"measurement": "Median survival time (MST)", "setting": "B16 Melanocarcinoma; 16.00 mg/kg i.p.", "value": 20.8, "unit": "days"},
      {"measurement": "Percent T/C", "setting": "B16 Melanocarcinoma; 16.00 mg/kg i.p.", "value": 110, "unit": "%"},
      {"measurement": "Median survival time (MST)", "setting": "B16 Melanocarcinoma; 32.00 mg/kg i.p.", "value": 6.7, "unit": "days"},
      {"measurement": "response vs control in vivo at 2 mg/kg", "setting": "leukemia P388; Mus musculus, P388, read-out: T/C %, dose 2,00 mg/kg", "value": 137, "unit": "%"},
      {"measurement": "response vs control in vivo at 4 mg/kg", "setting": "leukemia P388; Mus musculus, P388, read-out: T/C %, dose 4,00 mg/kg", "value": 142, "unit": "%"},
      {"measurement": "response vs control in vivo at 32 mg/kg", "setting": "leukemia P388; Mus musculus, P388, read-out: T/C %, dose 32,00 mg/kg", "value": "< 100", "unit": "%"},
      {"measurement": "response vs control in vivo at 65 mg/kg", "setting": "leukemia P388; Mus musculus, P388, read-out: T/C %, dose 65,00 mg/kg", "value": "< 100", "unit": "%"},
      {"measurement": "minimal effective dose", "setting": "leukemia P388; Mus musculus, P388, minor active dose reaching T/C≥120", "value": 2, "unit": "mg/kg"},
      {"measurement": "STATUS (activity against leukemia P388)", "setting": "leukemia P388; at the dose of the same line of the appendix table", "value": "T/C > 120 active"}
    ]}
  ]
}
